Test results published in patent USRE50050E1, “Pyrimidinedione compounds” (MyoKardia, Inc., priority 2013, dated 2024).
Read-outs that look alike come from different tables or passages of the source.

Key:
[1] = tested on: adult rat ventricular myocytes; assay: Cardiomyocyte contractility assay (fractional shortening, IonOptix); type: cell-based; settings: Ventricular myocyte, 5 min, 5 minutes of compound; for inhibition at 0.3 µM: 0.3 uM compound; for inhibition at 1 µM: 1.0 uM compound
Description: Contractility of adult rat ventricular myocytes is determined by edge detection with an IonOptix contractility system. Aliquots of myocytes in Tyrode buffer (137 mM NaCl, 3.7 mM KCL, 0.5 mM MgCl2, 1.5 mM CaCl2, 4 mM HEPES, 11 mM glucose) are placed in a perfusion chamber (Series 20 RC-27NE; Warner Instruments), allowed to adhere to the coverslip, and then perfused with 37° C. Tyrode buffer. Myocytes are filed stimulated at 1 Hz and 10V. Only myocytes with clear striations, quiescent prior to pacing, with a cell length of 120-180 microns, a basal fractional shortening equal to 3-8% of the cell length, and a contraction velocity greater than 100 microns per second are used for contractility experiments. To determine the response to compounds, myocytes are first perfused for 60 seconds with Tyrodes buffer followed by 5 minutes of compound and a 140 second washout with Tyrodes buffer. Data is continuously recorded using IonOptix software. Contractility data is analyzed using Ionwizard software (IonOptix). For each cell, 10-20 contractility transients were averaged and compared under basal (no compound) and compound-treated conditions. Compound activity is measured by effects on fractional shortening (FS), where fractional shortening is the ratio of the peak length of the cell at contraction divided by the basal cell length normalized to 100% for an untreated cell.

[2] = target: T1, bovine cardiac myosin (Bos taurus, UniProt Q9BE39); assay: Myosin inhibition assay (PK/LDH-coupled ATPase, bovine cardiac myofibrils); type: biochemical; settings: bovine cardiac myofibrils
T1 construct: The source of cardiac myosin was from bovine heart in the form of skinned myofibrils; from tissue; host or cells: bovine heart, skinned myofibrils

[3] = calcium giving 75% activation (pCa75), read-out: Biochemical Activity (pCa75)
[4] = calcium giving 50% activation (pCa50), read-out: Biochemical Activity (pCa50)

T1 sequence (Q9BE39 whole entry): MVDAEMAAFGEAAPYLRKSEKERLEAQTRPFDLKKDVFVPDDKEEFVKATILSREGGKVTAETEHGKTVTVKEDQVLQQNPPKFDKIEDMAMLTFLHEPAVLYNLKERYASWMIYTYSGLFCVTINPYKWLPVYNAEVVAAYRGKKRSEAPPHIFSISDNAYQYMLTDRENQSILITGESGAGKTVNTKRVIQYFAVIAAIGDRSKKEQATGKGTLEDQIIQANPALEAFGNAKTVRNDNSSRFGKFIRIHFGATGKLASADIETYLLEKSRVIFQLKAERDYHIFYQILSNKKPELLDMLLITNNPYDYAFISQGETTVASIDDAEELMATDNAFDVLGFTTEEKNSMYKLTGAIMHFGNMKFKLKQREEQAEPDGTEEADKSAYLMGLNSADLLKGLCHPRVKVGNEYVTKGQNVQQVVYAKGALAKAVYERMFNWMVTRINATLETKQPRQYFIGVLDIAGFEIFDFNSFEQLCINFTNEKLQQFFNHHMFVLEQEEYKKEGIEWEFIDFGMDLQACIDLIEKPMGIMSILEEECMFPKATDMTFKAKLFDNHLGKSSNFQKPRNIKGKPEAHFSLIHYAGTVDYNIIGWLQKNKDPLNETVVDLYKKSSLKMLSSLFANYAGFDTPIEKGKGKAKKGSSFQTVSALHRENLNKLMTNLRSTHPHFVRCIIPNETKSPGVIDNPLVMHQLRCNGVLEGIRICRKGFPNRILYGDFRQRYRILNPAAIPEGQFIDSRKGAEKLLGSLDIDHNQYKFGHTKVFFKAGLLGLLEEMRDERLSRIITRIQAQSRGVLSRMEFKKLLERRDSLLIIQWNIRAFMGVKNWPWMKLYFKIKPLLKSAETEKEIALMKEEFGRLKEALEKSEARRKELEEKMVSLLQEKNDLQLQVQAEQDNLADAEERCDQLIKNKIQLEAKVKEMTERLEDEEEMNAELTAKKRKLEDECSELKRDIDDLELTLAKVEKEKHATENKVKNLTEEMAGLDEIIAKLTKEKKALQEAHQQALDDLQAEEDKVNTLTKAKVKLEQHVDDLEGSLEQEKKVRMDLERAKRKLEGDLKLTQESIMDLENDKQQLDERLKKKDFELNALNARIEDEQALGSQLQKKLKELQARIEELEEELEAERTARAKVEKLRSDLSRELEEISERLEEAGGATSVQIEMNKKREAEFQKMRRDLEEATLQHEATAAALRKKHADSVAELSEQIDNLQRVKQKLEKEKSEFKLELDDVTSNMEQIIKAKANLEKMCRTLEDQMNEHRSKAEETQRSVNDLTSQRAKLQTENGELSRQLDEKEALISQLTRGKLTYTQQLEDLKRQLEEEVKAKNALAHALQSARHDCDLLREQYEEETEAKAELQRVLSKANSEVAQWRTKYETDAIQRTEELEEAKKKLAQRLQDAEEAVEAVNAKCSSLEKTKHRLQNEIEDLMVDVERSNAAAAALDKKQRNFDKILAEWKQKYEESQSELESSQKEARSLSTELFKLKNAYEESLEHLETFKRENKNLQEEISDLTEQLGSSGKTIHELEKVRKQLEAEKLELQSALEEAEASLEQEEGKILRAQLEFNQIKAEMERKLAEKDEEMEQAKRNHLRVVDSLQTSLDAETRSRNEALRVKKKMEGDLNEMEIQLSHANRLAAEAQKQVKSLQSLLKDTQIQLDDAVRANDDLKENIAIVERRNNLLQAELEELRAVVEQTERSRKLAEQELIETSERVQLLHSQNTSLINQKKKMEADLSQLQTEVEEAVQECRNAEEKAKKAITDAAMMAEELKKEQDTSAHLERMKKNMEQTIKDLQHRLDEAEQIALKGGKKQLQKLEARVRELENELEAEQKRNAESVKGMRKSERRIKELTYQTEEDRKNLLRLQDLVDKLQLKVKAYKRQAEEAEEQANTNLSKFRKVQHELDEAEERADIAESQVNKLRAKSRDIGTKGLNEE
T1 sequence (P85100 whole entry partner): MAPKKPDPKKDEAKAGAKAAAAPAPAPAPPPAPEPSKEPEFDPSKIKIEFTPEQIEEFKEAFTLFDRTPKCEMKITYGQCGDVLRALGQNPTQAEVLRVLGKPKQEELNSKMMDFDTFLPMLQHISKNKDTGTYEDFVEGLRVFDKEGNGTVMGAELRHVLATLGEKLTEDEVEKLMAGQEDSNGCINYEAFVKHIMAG
T1 sequence (Q3SZE5 whole entry partner): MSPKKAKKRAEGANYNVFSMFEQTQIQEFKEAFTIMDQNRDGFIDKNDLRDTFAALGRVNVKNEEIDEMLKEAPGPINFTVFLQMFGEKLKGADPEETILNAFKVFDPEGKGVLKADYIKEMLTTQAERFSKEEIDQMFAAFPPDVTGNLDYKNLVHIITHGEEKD

| SMILES | IC50 [2, 3] | IC50 [2, 4] | other results |
| --- | --- | --- | --- |
| C[C@H](Nc1cc(=O)n(C2CCN(S(C)(=O)=O)CC2)c(=O)[nH]1)c1ccccc1 [Compound 12, (S)-3-(1-(methylsulfonyl)piperidin-4-yl)-6-(1-phenylethylamino)pyrimidine-2,4(1H,3H)-dione] | < 1000 nM | – | inhibition at 1 µM [1]: 33 to 66% |
| CC(C)n1c(=O)cc(N[C@H](C)c2ccccc2)[nH]c1=O [Compound 19R] | – | – | inhibition at 1 µM [1]: < 33% |
| Cc1cccc(-n2c(=O)cc(N[C@@H](C)c3ccccc3)[nH]c2=O)n1 [Compound 65, (S)-3-(6-methylpyridin-2-yl)-6-((1-phenylethyl)amino)pyrimidine-2,4(1H,3H)-dione] | – | 1000 to 15000 nM | – |
| C[C@H](Nc1cc(=O)n(-c2ccnnc2)c(=O)[nH]1)c1ccccc1 [Compound 73] | 1000 to 15000 nM | – | – |
| C[C@H](Nc1cc(=O)n(-c2cncnc2)c(=O)[nH]1)c1ccccc1 [Compound 74] | 1000 to 15000 nM | – | – |
| C[C@H](Nc1cc(=O)n(-c2cnccn2)c(=O)[nH]1)c1ccccc1 [Compound 75] | 1000 to 15000 nM | – | – |
| C[C@H](Nc1cc(=O)n(-c2cnn(C)c2)c(=O)[nH]1)c1ccccc1 [Compound 77] | 1000 to 15000 nM | – | – |
| C[C@H](Nc1cc(=O)n([C@@H]2CCCOC2)c(=O)[nH]1)c1ccccc1 [Compound 79] | 1000 to 15000 nM | – | – |
| C[C@H](Nc1cc(=O)n(C2CCC(F)(F)CC2)c(=O)[nH]1)c1ccccc1 [Compound 82] | < 1000 nM | < 1000 nM | – |
| C[C@H](Nc1cc(=O)n(C2CCN(C(=O)c3ccccc3)CC2)c(=O)[nH]1)c1ccccc1 [Compound 84] | < 1000 nM | – | – |
| CC(C)n1c(=O)cc(N[C@@H](C)Cc2ccccc2)[nH]c1=O [Compound 90] | 1000 to 15000 nM | – | – |
| CCn1c(=O)cc(N[C@@H](C)c2ccc3c(c2)OCO3)[nH]c1=O [Compound 108] | – | < 1000 nM | – |
| O=c1cc(N[C@H](c2ccccc2)C2CC2)[nH]c(=O)n1CC(F)(F)F [Compound 111] | – | 1000 to 15000 nM | – |
| O=c1cc(N[C@H](c2ccccc2)C2CCC2)[nH]c(=O)n1CC(F)(F)F [Compound 112] | – | < 1000 nM | – |
| C[C@H](n1c(=O)cc(N[C@@H](C)Cc2ccc(F)cc2)[nH]c1=O)C(F)(F)F [Compound 114] | – | < 1000 nM | – |
| C[C@H](Nc1cc(=O)n(C2(C(F)(F)F)CC2)c(=O)[nH]1)c1ccccc1 [Compound 117] | – | < 1000 nM | – |
| C[C@@H](Cc1ccc(F)cc1)Nc1cc(=O)n(-c2cc(F)cc(F)c2)c(=O)[nH]1 [Compound 118] | – | < 1000 nM | – |
| CCn1c(=O)cc(N[C@@H](C)c2cccc(Cl)c2)[nH]c1=O [Compound 123] | – | < 1000 nM | – |
| CCn1c(=O)cc(N[C@@H](C)c2cccc(C(F)(F)F)c2)[nH]c1=O [Compound 124] | – | < 1000 nM | – |
| C[C@H](Nc1cc(=O)n(CC2CC2)c(=O)[nH]1)c1cccc(F)c1 [Compound 125] | – | < 1000 nM | – |
| C[C@H](Nc1cc(=O)n(CC2CC2)c(=O)[nH]1)c1cccc(C(F)(F)F)c1 [Compound 126] | – | 1000 to 15000 nM | – |
| C[C@H](Nc1cc(=O)n(CC2CC2)c(=O)[nH]1)c1cccc(Cl)c1 [Compound 127] | – | < 1000 nM | – |
| CC(C)n1c(=O)[nH]c(N[C@@H](C)c2ccc3c(c2)OC(F)(F)O3)c(Cl)c1=O [Compound 128] | – | 1000 to 15000 nM | – |
| CCCn1c(=O)cc(N[C@@H](C)c2cccc(F)c2)[nH]c1=O [Compound 129] | – | 1000 to 15000 nM | – |
| CCCn1c(=O)cc(N[C@@H](C)c2cccc(Cl)c2)[nH]c1=O [Compound 130] | – | < 1000 nM | – |
| CCCn1c(=O)cc(N[C@@H](C)c2cccc(C(F)(F)F)c2)[nH]c1=O [Compound 131] | – | < 1000 nM | – |
| C[C@H](Nc1cc(=O)n(C2CCC2)c(=O)[nH]1)c1ccc(F)cc1 [Compound 132] | – | < 1000 nM | – |
| CCn1c(=O)cc(N[C@@H](C)c2ccc(F)c(F)c2)[nH]c1=O [Compound 134] | – | < 1000 nM | – |
| CCCn1c(=O)cc(N[C@@H](C)c2ccc(F)cc2)[nH]c1=O [Compound 136] | – | < 1000 nM | – |
| C[C@H](Nc1cc(=O)n(-c2cccc(F)n2)c(=O)[nH]1)c1ccccc1 [Compound 137] | – | < 1000 nM | – |

Continued, in another order:

| IC50 [2, 3] | IC50 [2, 4] | SMILES | other results |
| --- | --- | --- | --- |
| 1000 to 15000 nM | – | CC(C)n1c(=O)[nH]c(N[C@@H](C)c2ccccc2)c(F)c1=O [Compound 2, (S)-5-Fluoro-3-isopropyl-6-((1-phenylethyl)amino)pyrimidine-2,4(1H,3H)-dione] | inhibition at 0.3 µM [1]: 33 to 66%; inhibition at 1 µM [1]: > 66% |
| < 1000 nM | < 1000 nM | CC(C)n1c(=O)cc(N[C@@H](C)c2cccc(F)c2)[nH]c1=O [Compound 27] | inhibition at 0.3 µM [1]: 33 to 66% |
| – | 1000 to 15000 nM | CC(C)n1c(=O)cc(N[C@@H](COCc2ccccc2)c2ccccc2)[nH]c1=O [Compound 64, (R)-6-((2-(benzyloxy)-1-phenylethyl)amino)-3-isopropylpyrimidine-2,4(1H,3H)-dione] | – |
| – | 1000 to 15000 nM | C[C@H](Nc1cc(=O)n(CC(F)F)c(=O)[nH]1)c1ccccc1 [Compound 66, (S)-3-(2,2-difluoroethyl)-6-((1-phenylethyl)amino)pyrimidine-2,4(1H,3H)-dione] | – |
| – | < 1000 nM | Cc1ccccc1[C@H](C)Nc1cc(=O)n(C(C)C)c(=O)[nH]1 [Compound 68, (S)-3-isopropyl-6-((1-(o-tolyl)ethyl)amino)pyrimidine-2,4(1H,3H)-dione] | – |
| 1000 to 15000 nM | – | CC(C)n1c(=O)cc(N[C@@H](C)c2cccc(-n3ccnc3)c2)[nH]c1=O [Compound 72] | – |
| 1000 to 15000 nM | – | CC(C)n1c(=O)cc(N[C@@H](C)c2cccnc2)[nH]c1=O [Compound 76] | – |
| < 1000 nM | – | CCC[C@H](Nc1cc(=O)n(C(C)C)c(=O)[nH]1)c1ccccc1 [Compound 78] | – |
| < 1000 nM | – | C[C@H](Nc1cc(=O)n(C2CCCC2)c(=O)[nH]1)c1ccccc1 [Compound 80] | – |
| 1000 to 15000 nM | – | CC(C)[C@H](Nc1cc(=O)n(C(C)C)c(=O)[nH]1)c1ccccc1 [Compound 81] | – |
| < 1000 nM | – | CCC(CC)n1c(=O)cc(N[C@@H](C)c2ccccc2)[nH]c1=O [Compound 83] | – |
| < 1000 nM | – | CC(C)n1c(=O)cc(N[C@@H](C)CCc2ccccc2)[nH]c1=O [Compound 85] | – |
| 1000 to 15000 nM | – | COC(=O)Cn1c(=O)cc(N[C@@H](C)c2ccccc2)[nH]c1=O [Compound 86] | – |
| 1000 to 15000 nM | – | C[C@H](Nc1cc(=O)n([C@@H](C)COCc2ccccc2)c(=O)[nH]1)c1ccccc1 [Compound 91] | – |
| 1000 to 15000 nM | 1000 to 15000 nM | C[C@H](Nc1cc(=O)n([C@@H](C)CO)c(=O)[nH]1)c1ccccc1 [Compound 92] | – |
| < 1000 nM | 1000 to 15000 nM | CC(C)n1c(=O)cc(N[C@@H](CO)c2ccccc2)[nH]c1=O [Compound 93] | – |
| < 1000 nM | – | C[C@H](Nc1cc(=O)n([C@H](C)C(F)(F)F)c(=O)[nH]1)c1ccccc1 [Compound 94] | – |
| < 1000 nM | < 1000 nM | C[C@H](Nc1cc(=O)n([C@@H](C)C(F)(F)F)c(=O)[nH]1)c1ccccc1 [Compound 95] | – |

| IC50 [2, 3] | IC50 [2, 4] | SMILES | other results |
| --- | --- | --- | --- |
| < 1000 nM | – | CC(CC(F)(F)F)n1c(=O)cc(N[C@@H](C)c2ccccc2)[nH]c1=O (stereo partly drawn) [Compound 99] | – |
| 1000 to 15000 nM | – | C[C@H](Nc1cc(=O)n(CC(F)(F)F)c(=O)[nH]1)c1ccccc1 [Compound 100] | – |
| – | 1000 to 15000 nM | C[C@H](Nc1cc(=O)n(C(C)(C)C)c(=O)[nH]1)c1ccccc1 [Compound 101] | – |
| – | 1000 to 15000 nM | COCCn1c(=O)cc(N[C@@H](C)c2ccccc2)[nH]c1=O [Compound 102] | – |
| – | < 1000 nM | CC[C@H](Nc1cc(=O)n([C@@H](C)C(F)(F)F)c(=O)[nH]1)c1ccccc1 [Compound 103] | – |
| – | < 1000 nM | C[C@H](Nc1cc(=O)n([C@H](C)C2CC2)c(=O)[nH]1)c1ccccc1 [Compound 104] | – |
| – | < 1000 nM | C[C@H](Nc1cc(=O)n([C@@H](C)C2CC2)c(=O)[nH]1)c1ccccc1 [Compound 105] | – |
| – | < 1000 nM | CCn1c(=O)cc(N[C@H](c2ccccc2)C2CCC2)[nH]c1=O [Compound 106] | – |
| – | < 1000 nM | CC(C)n1c(=O)cc(N[C@@H](C)c2ccc3c(c2)OCO3)[nH]c1=O [Compound 107] | – |
| – | 1000 to 15000 nM | CC[C@H](Nc1cc(=O)n(CC(F)(F)F)c(=O)[nH]1)c1ccccc1 [Compound 109] | – |
| – | 1000 to 15000 nM | C[C@H](Nc1cc(=O)n(CC2CC2)c(=O)[nH]1)c1ccccc1 [Compound 110] | – |
| – | 1000 to 15000 nM | C[C@H](Nc1cc(=O)n(C(CO)CO)c(=O)[nH]1)c1ccccc1 [Compound 113] | – |
| – | < 1000 nM | CC(C)n1c(=O)cc(N[C@@H](C)c2ccccc2O)[nH]c1=O [Compound 116] | – |
| – | < 1000 nM | CC(C)n1c(=O)cc(N[C@@H](C)c2ccc3c(c2)OC(F)(F)O3)[nH]c1=O [Compound 119] | – |
| – | < 1000 nM | CC(C)n1c(=O)cc(N[C@@H](C)c2ccccc2Cl)[nH]c1=O [Compound 120] | – |
| – | < 1000 nM | COc1ccc([C@H](C)Nc2cc(=O)n(C(C)C)c(=O)[nH]2)cc1 [Compound 121] | – |
| – | 1000 to 15000 nM | CCn1c(=O)cc(N[C@H](c2ccccc2)C2CC2)[nH]c1=O [Compound 122] | – |
| – | < 1000 nM | CC[C@H](C)n1c(=O)cc(N[C@@H](C)c2ccc(F)cc2)[nH]c1=O [Compound 135] | – |
